Consider 13 compounds from patent publication US20100120730A1, “6-BENZYL-2,3,4,7-TETRAHYDRO-INDOLO [2,3-C] QUINOLINE COMPOUNDS USEFUL AS PDE5 INHIBITORS” (NYCOMED GmbH, priority 2007, published 2010).

One series has as its target T1, human PDE5 (Homo sapiens, UniProt O76074).
T1 construct: from tissue; host or cells: human platelets from fresh donor blood (10,000 g supernatant of sonified platelets)
The series is described as follows: Inhibition of PDE5 activity (modified SPA test, human platelet lysate). Particulars: PDE5-containing human platelet lysate, 0.5 μM cGMP substrate, 37° C. Type of series: biochemical. The essentials:
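Human platelet lysate (10,000 g supernatant) as PDE5 source; SPA with 0.5 μM cGMP plus [3H]cGMP tracer, 20 mM Tris pH 7.4, 5 mM Mg2+, 1 μM motapizone and 10 nM BAY-60-7550; 5 min preincubation at 37° C., 15 min reaction, stopped with SPA beads containing IBMX. IC50 by non-linear regression.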

Turning to `NC(=O)Nc1ccc(Cc2nc3c(c4c2[nH]c2ccccc24)C(=O)CCC3)cc1` [Example 76, [4-(1-Oxo-2,3,4,7-tetrahydro-1H-indolo[2,3-c]quinolin-6-ylmethyl)-phenyl]-urea], the melting point – broadly, the temperature, or range, at which the solid turns liquid – lay in the range of 232 to 234 °C. Also, the concentration for half-maximal inhibition (IC50) (usually the concentration that gives 50% inhibition) on human PDE5 is 41.7 nM.
As for `COc1ccc(Cc2nc3c(c4c2[nH]c2ccccc24)CCC(C)(C)C3)cc1` [Example 77, 6-(4-Methoxy-benzyl)-3,3-dimethyl-2,3,4,7-tetrahydro-1H-indolo[2,3-c]quinoline], the melting point was determined as 158 °C. Moreover, at human PDE5, the IC50 was 6.31 nM.
`COc1ccc(Cc2c3[nH]c4ccccc4c3c3c([n+]2[O-])CC(C)(C)CC3=O)cc1` [Example 78, 6-(4-Methoxy-benzyl)-3,3-dimethyl-5-oxy-2,3,4,7-tetrahydro-indolo[2,3-c]quinolin-1-one] registered a melting point of 202 °C. At human PDE5, this compound showed an IC50 of 15.5 nM.
In turn, `COc1ccc(Cc2nc3c(c4c2[nH]c2ccccc24)[C@@H](O)CC(C)(C)C3)cc1F` [Example 79, (S)-6-(3-Fluoro-4-methoxy-benzyl)-3,3-dimethyl-2,3,4,7-tetrahydro-1H-indolo[2,3-c]quinolin-1-ol] came in with a melting point of 164 to 166 °C. The compound further had an IC50 against human PDE5 of 0.794 nM.
Regarding `COc1ccc(Cc2nc3c(c4c2[nH]c2ccccc24)[C@H](O)CC(C)(C)C3)cc1` [Example 80, (R)-6-(4-Methoxy-benzyl)-3,3-dimethyl-2,3,4,7-tetrahydro-1H-indolo[2,3-c]quinolin-1-ol], the melting point lay in the range of 118 to 120 °C. On human PDE5, this compound showed an IC50 of 100 nM.
Compound `COc1ccc(Cc2nc3c(c4c2[nH]c2ccccc24)[C@@H](O)CC(C)(C)C3)cc1` [Example 81, (S)-6-(4-Methoxy-benzyl)-3,3-dimethyl-2,3,4,7-tetrahydro-1H-indolo[2,3-c]quinolin-1-ol] yielded a melting point of 118 to 120 °C. Also, inhibition against human PDE5 was half-maximal at 1 nM (IC50).
The compound `COc1ccc(Cc2nc3c(c4c2[nH]c2ccccc24)[C@H](O)CC(C)(C)C3)cc1F` [Example 82, (R)-6-(3-Fluoro-4-methoxy-benzyl)-3,3-dimethyl-2,3,4,7-tetrahydro-1H-indolo[2,3-c]quinolin-1-ol] showed a melting point of 164 to 166 °C. Moreover, the concentration for half-maximal inhibition (IC50) against human PDE5 is 31.6 nM.
On to `COc1ccc(Cc2nc3c(c4c2[nH]c2ccccc24)[C@H](O)CCC3)cc1F` [Example 83, (R)-6-(3-Fluoro-4-methoxy-benzyl)-2,3,4,7-tetrahydro-1H-indolo[2,3-c]quinolin-1-ol], for which the melting point fell in the range of 124 to 127 °C. The same compound gave a concentration for half-maximal inhibition (IC50) at human PDE5 of 25.1 nM.
In the case of `CC1(C)Cc2nc(Cc3cc(F)cc(F)c3)c3[nH]c4ccccc4c3c2[C@H](O)C1` [Example 84, (R)-6-(3,5-Difluoro-benzyl)-3,3-dimethyl-2,3,4,7-tetrahydro-1H-indolo[2,3-c]quinolin-1-ol], the melting point lay in the range of 129 to 131 °C. Besides, on human PDE5, the 50% inhibitory concentration (IC50) is 398 nM.
`COc1ccc(Cc2nc3c(c4c2[nH]c2ccccc24)[C@@H](O)CCC3)cc1F` [Example 85, (S)-6-(3-Fluoro-4-methoxy-benzyl)-2,3,4,7-tetrahydro-1H-indolo[2,3-c]quinolin-1-ol] had a melting point of 125 to 127 °C. The half-maximal inhibitory concentration (IC50) on human PDE5 was 2 nM.
Consider `CC1(C)Cc2nc(Cc3cc(F)cc(F)c3)c3[nH]c4ccccc4c3c2[C@@H](O)C1` [Example 86, (S)-6-(3,5-Difluoro-benzyl)-3,3-dimethyl-2,3,4,7-tetrahydro-1H-indolo[2,3-c]quinolin-1-ol], for which the melting point was 130 to 131 °C. This compound also showed a 50% inhibitory concentration (IC50) at human PDE5 of 3.16 nM.
The compound `CC1(C)Cc2nc(Cc3cccc(F)c3)c3[nH]c4ccccc4c3c2[C@@H](O)C1` [Example 93, (S)-6-(3-Fluoro-benzyl)-3,3-dimethyl-2,3,4,7-tetrahydro-1H-indolo[2,3-c]quinolin-1-ol] gave a melting point of 123 to 126 °C. The same compound showed a 50% inhibitory concentration (IC50) at human PDE5 of 3.89 nM.
`CC1(C)Cc2nc(Cc3cccc(Cl)c3)c3[nH]c4ccccc4c3c2[C@@H](O)C1` [Example 94, (S)-6-(3-Chloro-benzyl)-3,3-dimethyl-2,3,4,7-tetrahydro-1H-indolo[2,3-c]quinolin-1-ol] had a melting point of 124 to 127 °C. Besides, half-maximal inhibition against human PDE5 (IC50) required 15.1 nM.
